# Reference: publication PMC9588787, “Exploring the In situ pairing of human galectins toward synthetic O-mannosylated core M1 glycopeptides of α-dystroglycan” (Scientific Reports, 2022)
# “Also recorded” adds a separate entry of the source. Where no end group is shown, it is not given here.
# How the values were obtained:
# [1] = tested on: Gal-1, -3, -4, and -9; test: Glycopeptide microarray, statements for the galectin test panel as a whole; assay type: binding, human; details: compounds immobilised at 20 and/or 200 μM; galectins 0.10-32.0 µg/mL, PBS pH 7.4, no reducing agent
# Method: (§1) Following our reported optimized protocol, the binding profile of lectins were investigated using evanescent-field fluorescence-assisted microarray technology to directly monitor the interaction without the wash and dry-up process and rapid exchange of protein solution to evaluate concentration dependence, 0.10–32.0 µg/mL protein. The AO/PC-copolymer microarray slides were deprotected using 2N HCl treatment overnight at rt, rinsed with MilliQ H2O, and dried by centrifugation. […]
# (§2) A silicon rubber sheet with six chambers was attached to the printed slide. […] After 1 h of incubation with the lectin solution at rt in a humidified chamber, the slide was rinsed with washing buffer (reaction buffer with containing 0.05% (v/v) Tween-20) and fluorescence intensity was measured with GlycoStation System. To determine whether additional interactions will be detected at higher lectin concentrations, the reaction buffer solution was carefully removed and replaced with the next lectin test concentration, incubated for 5 min at rt, washed with reaction buffer and then fluorescence intensity was obtained. […]
# (§3) Images of slides were captured in the presence of reaction buffer. The fluorescexcelence intensities obtained were analyzed using ArrayVision 8.0 (GE Healthcare). […]
# [2] = tested on: Gal-3; test: Glycopeptide microarray lectin binding assay, Gal-3; set-up: species or system human; details: compounds immobilised at 20 and/or 200 μM; Gal-3 0.10-32.0 µg/mL, PBS pH 7.4, no reducing agent
# Method: as §1, §2, §3
# [3] = tested on: Gal-1; test: Glycopeptide microarray lectin binding assay, Gal-1; set-up: species or system human; details: compounds immobilised at 20 and/or 200 μM, quadruplets; labelled Gal-1 0.10-32.0 µg/mL, PBS pH 7.4, no reducing agent, ambient air (partially oxidizing)
# Method: Following our reported optimized protocol, the binding profile of lectins were investigated using evanescent-field fluorescence-assisted microarray technology to directly monitor the interaction without the wash and dry-up process and rapid exchange of protein solution to evaluate concentration dependence, 0.10–32.0 µg/mL protein. The AO/PC-copolymer microarray slides were deprotected using 2N HCl treatment overnight at rt, rinsed with MilliQ H2O, and dried by centrifugation. Then, test compounds were robotically printed using Arduino-based CNC machine handcrafted robot in quadruplets at two concentrations (20 and 200 µM) in 25 mM AcOH-Pyr (pH 5.0), 0.0025% (w/v) Triton X-100 under constant condition (temperature: 20–25 °C and humidity: 35–45 RH). A 25 µg/mL Cyanin3-keto-BSA (Cy3-keto-BSA) was also printed in the slide as grid. Subsequently, the slide was incubated at 80 °C for 1 h to complete the oxime bond formation. Washed once with Milli-Q H2O and dried by centrifugation at 2,000 rpm for 2 min.
# A silicon rubber sheet with six chambers was attached to the printed slide. Next, slide was pretreated with reaction buffer {Phosphate-Buffered Saline solution (PBS, 1X) [10 mM Na2HPO4, 1.8 mM KH2PO4, 2.7 mM KCl, 137 mM NaCl] pH7.4 containing 0.05% (v/v) Tween-20} for 15 min and dried by centrifugation. The PBS (with or without 10 mM DTT) solutions of galectin were prepared and maintained at a cold ice bath before use. Thereafter, a cover glass was set on each chamber and 12 µL of 0.10 µg/mL lectin solution in reaction buffer was added through the gap of the slide and cover. After 1 h of incubation with the lectin solution at rt in a humidified chamber, the slide was rinsed with washing buffer (reaction buffer with containing 0.05% (v/v) Tween-20) and fluorescence intensity was measured with GlycoStation System. To determine whether additional interactions will be detected at higher lectin concentrations, the reaction buffer solution was carefully removed and replaced with the next lectin test concentration, incubated for 5 min at rt, washed with reaction buffer and then fluorescence intensity was obtained. This step was repeated until all the chosen test concentrations were completed (0.32-, 1.00-, 3.20-, 10.0-, and 32.0 µg/mL).
# Images of slides were captured in the presence of reaction buffer. The fluorescexcelence intensities obtained were analyzed using ArrayVision 8.0 (GE Healthcare). For each spot, background correction was applied to get the net intensity, and the average relative fluorescence unit (RFU) was plotted using Microsoft Excel for Microsoft 365. The lectin specificity was identified from high and low RFU values, the error bars being the standard deviation.
# [4] = tested on: Gal-1, Gal-4, and Gal-9; test: Microarray inhibition experiment (methyl-Lac, cellobiose, maltose, acetylated peptide 4); assay type: binding, human; details: for Gal-1 interaction with immobilised compound upon addition of methyl-Lac: Gal-1, Fig. 5b, 2.00 µM to 200 mM methyl-Lac; for Effect of soluble inhibitor on galectin binding to immobilised glycopeptides: 10 µg/mL galectin, sugars 2.00 µM to 200 mM, acetylated peptide 4 100 µM to 5.00 mM
# Method: After 30 min of incubation with the galectin-inhibitor solution at rt in a humidified chamber, the slide was rinsed with washing buffer and fluorescence intensity was measured with GlycoStation System. […] Slide images were captured and analyzed as described above.
# [5] = tested on: laminin-111, -121, -211, and -221 with unlabeled Gal-1; test: Laminin–Gal-1 binding assay (trans-bridging on microarray); set-up: species or system human; details: 200 μM immobilised compounds; 0.10-32.0 µg/mL Cy3-laminin–unlabeled Gal-1, 32.0 µg/mL extended 30 min
# Method: A 12 µL of premixed Cy3-labeled human recombinant laminin (BroadPharm and Biolamina, respectively) and unlabeled-Gal-1 with final concentration of 0.10 µg/mL was added to the printed test compounds. After 1 h of incubation with the laminin-galectin solution at rt in a humidified chamber, the slide was rinsed with washing buffer and fluorescence intensity was measured with GlycoStation System. To determine whether additional interactions will be detected at higher laminin-Gal-1 concentrations, the reaction buffer solution was carefully removed and replaced with the next test concentration, incubated for 5 min at rt, washed with reaction buffer and then fluorescence intensity was obtained. This step was repeated until all the chosen test concentrations were completed (0.32-, 1.00-, 3.20-, 10.0-, and 32.0 µg/mL). For weak interaction, incubation with 32.0 µg/mL of laminin-Gal-1 solution was extended for 30 min. Slide images were captured and analyzed as described above.
# [6] = tested on: Gal-1; test: 1H-15N HSQC NMR chemical shift perturbation of 15N-labeled Gal-1; assay type: binding, human; details: tested concentrations, 0.05 up to 64 equivalents of ligand; 100 µM Gal-1, pH 6.9, 10 mM DTT
# Method: ^15N Gal-1 was expressed in Escherichia coli cells BL21(DE3) from pET-GST/TEV-LGVLFQGP-hLGALS1 vector (VectorBuilder, Japan). The component cells were transformed with an expression vector utilizing the heat shock method. After one night of incubation on LB Agar plate (containing 100 μg/mL ampicillin), a colony harboring the expression construct was selected and then inoculated unto 5 mL Luria Broth (LB) with antibiotic overnight at 37 °C with shaking. The bacterial pellet was then resuspended to a fresh 500 mL M9-labeled (^15N-NH4Cl as nitrogen source) medium containing ampicillin. After that, culture was grown at 37 °C for at least 4 h until OD600 = 0.6–1.2. The cells were then induced with 0.5 mM isopropyl-β-D-1-thiogalactopyranoside (IPTG) overnight at 25 °C. Bacteria expressing ^15N Gal-1 was lysed with a sonicator (for 5 min, 25% duty cycle. 5 output control) in buffer containing 50 mM PBS, pH 7.4, 150 mM NaCl, 2 mM DTT. […] Lectin-binding activity was analyzed by 15N-HQSC with methyl-Lac. […]
# The ^15N-labeled Gal-1 was prepared at 100 µM concentration in 20 mM potassium phosphate buffer at pH 6.9, 50 µM EDTA and 10 mM DTT, made up using H2O/D2O (95:5%). […] Raw data were converted using TopSpin 4.1.3 and were analyzed using NMRFAM-Sparky[71]. […] The perturbation pattern of the Gal-1 (PDB ID: 1GZW) was analyzed and visualized by PyMOL 2.5.0 (http://www.pymol.org).
# [7] = target: Gal-3; details: read-out: Kd of interaction with Gal-3; cited from earlier work
# From the text: The glycan-CBP interactions are influenced by not only the type of glycan but also the spatial orientation, carrier scaffold, accessibility, density, and spacing of sugar moieties along the glycoconjugate, to obtain optimum fit within the binding pocket of the receptors[37],[40],[44].
# [8] = target: laminins; details: basal lamina; read-out: Kd of Gal-1 binding to poly-LacNAc structures of laminins; cited from earlier work
# From the text: In the basal lamina, Gal-1 binds to the poly-LacNAc structures of laminins (Kd≈10^−6 M), to maintain glycan recognizing function of Gal-1 in the ECM[61]. During muscle repair, Gal-1 binds directly to laminin and α7β1 integrin modulating the late myoblast fusion. In addition, Gal-1 can dissociate from laminin and cross-link olfactory neurons, forming ne ...
# [9] = tested on: Gal-9; test: Glycopeptide microarray lectin binding assay, Gal-9; set-up: species or system human; details: compounds immobilised at 20 and/or 200 μM; Gal-9 0.10-32.0 µg/mL, PBS pH 7.4, no reducing agent
# Method: as §1, §2, §3
# [10] = tested on: Gal-4; test: Glycopeptide microarray lectin binding assay, Gal-4; set-up: species or system human; details: compounds immobilised at 20 and/or 200 μM; Gal-4 0.10-32.0 µg/mL, PBS pH 7.4, no reducing agent
# Method: as §1, §2, §3
compound,measurement,setting,value
"5-oxo-hexanoyl-TRGAIIQTPTLGPIQPTRV -NH2 [compound 18, tris-LacNAc terminated α-DG glycopeptide]","Binding of the tested galectins (panel statement), microarray signal intensity",[1],lesser interaction
same,"Gal-3 binding, microarray signal intensity (RFU)",[2],did not result in higher intensity
"5-oxo-hexanoyl-TRGAIIQTPTLGPIQPTRV -NH2 [compound 5, mono-core M1 α-DG glycopeptide]","Gal-1 binding, microarray signal intensity (RFU)",[3],did not show significant interaction
same,Gal-1 interaction with immobilised compound upon addition of methyl-Lac,[4],enhanced interaction
same,"Gal-1 trans-bridging of Cy3-laminin to immobilised compound, signal intensity",[5],remarkable signal intensities
"CO[C@@H]1O[C@H](CO)[C@@H](O[C@@H]2O[C@H](CO)[C@H](O)[C@H](O)[C@H]2O)[C@H](O)[C@H]1O [methyl-Lac, methyl-β-lactoside, reference compound]",Chemical shift perturbation of 15N Gal-1 over the titration,[6],shifted the ^1H-^15N HSQC signals corresponding to the residues on S3–L6 regions
same,Effect of soluble inhibitor on galectin binding to immobilised glycopeptides,[4],significantly reduced interaction
"5-oxo-hexanoyl-TRGAIIQTPTLGPIQPTRV -NH2 [compound 6, mono-core M1 α-DG glycopeptide]","Gal-1 binding, microarray signal intensity (RFU)",[3],did not show significant interaction
same,Gal-1 interaction with immobilised compound upon addition of methyl-Lac,[4],enhanced interaction
same,"Gal-1 trans-bridging of Cy3-laminin to immobilised compound, signal intensity",[5],remarkable signal intensities
"O=C[C@H](O)[C@@H](O)[C@H](O[C@@H]1O[C@H](CO)[C@@H](O)[C@H](O)[C@H]1O)[C@H](O)CO [cellobiose, reference compound]",Effect of soluble inhibitor on galectin binding to immobilised glycopeptides,[4],minimal effect on the binding
"Galβ1,3GalNAcα1-O-Ser/Thr [TF antigen]",Kd,[7],245 µM
Gal-1: prototype homodimeric human galectin,Kd,[8],~1 µM
"5-oxo-hexanoyl-TRGAIIQTPTLGPIQPTRV -NH2 [compound 4, unglycosylated α-DG peptide backbone (…) with ketone linker]","Gal-1 binding, microarray signal intensity (RFU)",[3],binding was observed; also recorded: interact
same,"Gal-9 binding, microarray signal intensity (RFU)",[9],interact
same,"Gal-4 binding, microarray signal intensity (RFU)",[10],interact
same,"Gal-1 trans-bridging of Cy3-laminin to immobilised compound, signal intensity",[5],could anchor laminins
"5-oxo-hexanoyl-TRGAIIQTPTLGPIQPTRV -NH2 [compound 28, α-DG glycopeptide with heterogeneous glycans: sialyl-LacNAc core M1 and LacNAc core M1]","Gal-1 binding, microarray signal intensity (RFU)",[3],bound; also recorded: diminished Gal-1 binding
same,"Gal-4 binding, microarray signal intensity (RFU)",[10],significant reduction in the affinity
same,"Gal-1 trans-bridging of Cy3-laminin to immobilised compound, signal intensity",[5],decrease in the trans-bridging activity
"5-oxo-hexanoyl-TRGAIIQTPTLGPIQPTRV -NH2 [compound 15, bis-LacNAc core M1 α-DG glycopeptide, consecutive glycosylation sites]","Gal-3 binding, microarray signal intensity (RFU)",[2],stronger affinity
"5-oxo-hexanoyl-TRGAIIQTPTLGPIQPTRV -NH2 [compound 11, tris-core M1 α-DG glycopeptide]","Gal-1 binding, microarray signal intensity (RFU)",[3],notable decrease in binding interaction
"5-oxo-hexanoyl-TRGAIIQTPTLGPIQPTRV -NH2 [compound 26, α-DG glycopeptide with heterogeneous glycans: LacNAc core M1 and core M1]","Binding of the tested galectins (panel statement), microarray signal intensity",[1],high interaction
same,"Gal-1 binding, microarray signal intensity (RFU)",[3],bound
same,Galectin interaction with immobilised compound in the presence of methyl-Lac,"[4]; 200 μM immobilised compounds, 10 µg/mL galectin with 2.00 µM to 200 mM methyl-Lac",significantly reduced interaction
32: acetylated N-terminus unglycosylated α-DG peptide corresponding to 4 (Ac-TRGAIIQTPTLGPIQPTRV) [compound 32],Chemical shift perturbation of 15N Gal-1 over the titration,[6],failed to induce any significant deviation in the chemical shift
same,Effect of soluble inhibitor on galectin binding to immobilised glycopeptides,[4],minimal effect on the binding
